# In the Kinase Knowledgebase extract (Sharma et al. 2016):
# Molecular target: MAPK14 (UniProt Q16539)
# Experiment: Inhibition of MAPK14 Kinase Activity
# Conditions: not given
# Sequence of MAPK14 (Q16539 whole entry, looked up): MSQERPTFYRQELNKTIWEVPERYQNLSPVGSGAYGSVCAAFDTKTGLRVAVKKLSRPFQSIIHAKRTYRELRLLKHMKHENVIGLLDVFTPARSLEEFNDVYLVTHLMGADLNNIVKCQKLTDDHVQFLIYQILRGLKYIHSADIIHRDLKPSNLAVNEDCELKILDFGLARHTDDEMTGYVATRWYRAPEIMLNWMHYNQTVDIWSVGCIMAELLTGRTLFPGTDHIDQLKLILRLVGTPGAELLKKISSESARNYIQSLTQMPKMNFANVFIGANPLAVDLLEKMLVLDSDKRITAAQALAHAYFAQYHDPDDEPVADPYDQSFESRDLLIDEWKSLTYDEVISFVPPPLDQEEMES
row,SMILES,IC50 [nM]
1,Cc1nc(NC(=O)[C@H](N)[C@@H](C)O)sc1-c1ccnc(Nc2cccc([N+](=O)[O-])c2)n1,> 100000
2,CNc1nc(C)c(-c2ccnc(Nc3ccc(N4CCOCC4)cc3)n2)s1,> 100000
3,COc1cc2ncnc(Nc3cc(NC(=O)c4cccc(N(C)C)c4)ccc3C)c2cc1OC,31
4,CCOc1cc2cnc(NC3CCN(S(C)(=O)=O)CC3)nc2n(C)c1=O,58
5,O=C(c1ccc2cc[nH]c2c1)N1CCN(Cc2ccccc2)CC1,5520
6,FC(F)(F)c1cnc(Nc2ccc3nc[nH]c3c2)nc1Nc1ccccc1Cl,> 1000
7,COc1cc2cnc(NC3CCOCC3)nc2n(C)c1=O,1600
8,CNc1nc(C)c(-c2ccnc(Nc3ccc(N4CCN(Cc5ccccc5)CC4)cc3)n2)s1,> 100000
9,Cc1ccc(-n2nc(C3(C)CC3)cc2NC(=O)Nc2cnc(OC3CCN(C(=O)C4(C)CC4)CC3)c3ccccc23)cc1,34
10,CN1N=C(c2ccccc2Cl)Oc2cnc(NC3CCOCC3)nc21,189
11,CC(C)(CO)Nc1nccc(CCc2c[nH]c3ccc(N)cc23)n1,1500
12,O=C(c1c[nH]c2ccccc12)N1CCN(Cc2ccccc2)CC1,4740
13,Cc1nc(N)sc1-c1ccnc(Nc2ccc(N3CCOCC3)cc2)n1,> 100000
14,Cc1cccc(Cl)c1Nc1nc2ccc(N3CCN[C@@H](C)C3)nc2n2cncc12,380
15,CCOc1cc2cnc(NC3CCNCC3)nc2n(C)c1=O,> 10000
16,Cc1cccc(-n2nnnc2-c2ccc3c(c2)n(C)c(=O)n3C)c1,14400
17,O=C(c1cccc2[nH]ccc12)N1CCN(Cc2ccccc2)CC1,1540
18,CC[C@@H](N)C(=O)Nc1nc(C)c(-c2ccnc(Nc3cccc([N+](=O)[O-])c3)n2)s1,> 100000

# Continued, values first:
row,IC50 [nM],SMILES
1,12.8,Cc1ccccc1C(=O)c1ccc(Nc2cncc3ccccc23)cc1Cl
2,24,CNC(=O)c1cc(Oc2ccc(NC(=O)Nc3ccc(Cl)c(C(F)(F)F)c3)c(F)c2)ccn1
3,31,Cc1cccc(-c2n[nH]cc2-c2ccc(O)cc2)n1
4,< 30,CC(C)Nc1ncc2cc(Oc3ccc(F)cc3F)ccc2n1
5,264,Cc1ccc(Sc2ccc3c(-c4c(Cl)cccc4Cl)c(=O)ncn3n2)c(C)c1
6,4000,CCn1c(=O)n(CC)c2cc(-c3[nH]c(-c4ccc(S(C)(=O)=O)cc4)nc3-c3ccc(F)cc3)ccc21
7,< 2000,OCC(O)CNc1ncc2cc(Oc3ccc(F)cc3F)ccc2n1 (configuration not stated)
8,< 100,CCC(CO)(CO)Nc1ncc2cc(Oc3ccc(F)cc3F)ccc2n1
9,< 1,CS(=O)(=O)N1CCC(Nc2ncc3cc(Oc4ccc(F)cc4F)ccc3n2)CC1
10,1.3,C[C@@H](C(=O)O)N1CCC(c2cc3c(ccc(=O)n3-c3c(Cl)cccc3Cl)c(-c3ccc(F)cc3Cl)n2)CC1
11,220,CSc1nc(-c2ccc(F)cc2)c(-c2ccnc(NC(C)c3ccccc3)c2)n1C (configuration not stated)
12,> 1000,FC(F)(F)c1cnc(Nc2ccc(Br)cc2)nc1Nc1ccc2nc[nH]c2c1
13,450,O=c1ncn2nc(Sc3cccc(F)c3)ccc2c1-c1c(Cl)cccc1Cl
14,< 30,OC1CCC(Nc2ncc3cc(Oc4ccc(F)cc4F)ccc3n2)CC1 (configuration not stated)
15,27000,CSc1nc(-c2ccnc(NC(C)c3ccccc3)c2)c(-c2ccc(F)cc2)n1C (configuration not stated)
16,> 10000,CCS(=O)(=O)c1ccc(OC)c(Nc2ncc(-c3cccc(-c4ccccc4Cl)c3)o2)c1
17,3.2,C[C@H](C(=O)O)N1CCC(c2cc3c(ccc(=O)n3-c3c(Cl)cccc3Cl)c(-c3ccc(F)cc3Cl)n2)CC1
18,250,O=c1ncn2nc(Sc3ccccc3Br)ccc2c1-c1c(Cl)cccc1Cl
19,2000,CS(=O)(=O)CCNc1ncc2cc(Oc3ccc(F)cc3F)ccc2n1

# Same assay, conditions: concentration not given here
row,inhibition [%],SMILES
1,-6,O=C1NCc2nc(Sc3ccc(Sc4ccc(F)cc4)cc3)ccc2N1c1c(Cl)cccc1Cl
2,46,NC(=O)c1cccc(Cl)c1N1C(=O)NCc2nc(Sc3ccc(F)cc3)ccc21

# Molecular target: MAPK14 (human) (UniProt Q16539)
# Sequence (Q16539 whole entry, looked up): as above
# Experiment: Enzyme Assay
# Conditions: not given
row,SMILES,IC50 [nM]
1,Cc1cc(Nc2cc(Oc3ccc(NC(=O)Nc4cc(C(C)(C)C)nn4-c4cccc(OCCN(C)C)c4)c4ccccc34)ccn2)cc2cn[nH]c12,< 1
2,COc1cc(Nc2cc(Oc3ccc(NC(=O)Nc4cc(C(C)(C)C)cc(P(C)(C)=O)c4OC)c4ccccc34)ccn2)cc(C(N)=O)c1,4
3,Cc1ccc(-n2nc(C(C)(C)C)cc2NC(=O)Nc2ccc(Oc3ccnc(Nc4cccc(O)c4)n3)c3ccccc23)cc1,164
4,CSc1nc(-c2ccc(F)cc2)c(-c2ccnc(Nc3ccc(N4CCOCC4)cc3)c2)n1C,50
5,O=C(Nc1cnn(-c2cccc(C(=O)Nc3cnn(C4CCNC4)c3)c2)c1)Nc1ccccc1Cl (configuration not stated),> 10000
6,O=C(NCCN1CCOCC1)c1cc(-n2ncc3cc(Nc4c(Cl)cccc4Cl)ccc32)ccn1,480
7,COCCOCCCOCCNC(=O)c1cc(C(C)(C)C)cc(NC(=O)Nc2ccc(Oc3ccnc(Nc4cc(OC)cc(OCCOCCOCCOC)c4)n3)c3ccccc23)c1OC,108
8,Cc1ccc(-n2nc(C(C)(C)C)cc2NC(=O)Nc2ccc(Oc3ccnc(Nc4ccccc4Cl)n3)c3ccccc23)cc1,98
9,CCN(CC)CCNC(=O)c1cccc(-n2cc(NC(=O)Nc3ccccc3Cl)cn2)c1,> 10000
10,O=C(NCCN1CCOCC1)c1cccc(-n2ncc3cc(Nc4ccccc4Cl)ccc32)c1,40
11,COCCOCCOCCOc1cc(Nc2cc(Oc3ccc(NC(=O)Nc4cc(C(C)(C)C)cc(S(C)(=O)=O)c4OC)c4ccccc34)ccn2)cc(OC)c1,26
12,COc1c(NC(=O)Nc2ccc(Oc3ccnc(Nc4ccccc4)c3)c3ccccc23)cc(C(C)(C)C)cc1[S+](C)[O-] (configuration not stated),11
13,O=C(NCCN1CCOCC1)c1ccnc(-n2ncc3cc(Nc4ccccc4Cl)ccc32)c1,1300
14,COc1ccc(-n2nc(C(C)C)cc2NC(=O)Nc2ccc(Oc3ccnc(Nc4cc(OC)cc(C(=O)NCCN(C)C)c4)n3)c3ccccc23)cc1,1
15,Cc1ccc(C(=O)NC2CC2)cc1-c1ccc2c(c1)NC(=O)C21CCN(S(C)(=O)=O)CC1,1
16,O=C(NCCCN1CCOCC1)c1ccc(-n2ncc3cc(Nc4ccccc4Cl)ccc32)cc1,170
17,COc1c(CCc2cc(C(=O)Nc3cc(-n4cnc(C)c4)cc(C(F)(F)F)c3)ccc2C)cnc2[nH]ccc12,< 10
18,C#Cc1cc(Nc2cc(Oc3ccc(NC(=O)Nc4cc(C(C)(C)C)cc(NS(C)(=O)=O)c4OC)c4ccccc34)ccn2)cc(C(=O)NCCCN2CCOCC2)c1,158
19,C#Cc1cc(Nc2nccc(Oc3ccc(NC(=O)Nc4cc([Si](C)(C)C)nn4-c4ccc(C)cc4)c4ccccc34)n2)cc(C(=O)NCCN2CCOCC2)c1,108
20,Cc1ccc(C(=O)NC2CC2)cc1-c1ccc2c(c1)NC(=O)C21CCN(C)CC1,5.2
21,O=C(Nc1cnn(-c2cccc(C(=O)NCC3CCNCC3)c2)c1)Nc1ccccc1Cl,> 10000
22,CN(C)CCn1cc(NC(=O)c2cccc(-n3cc(NC(=O)Nc4ccccc4Cl)cn3)c2)cn1,> 10000
23,O=C(Nc1cnn(-c2cccc(C(=O)Nc3cnn(C4CCNCC4)c3)c2)c1)Nc1ccccc1Cl,> 10000
24,Cc1nc(COc2nc(C)n(-c3cc(-c4ccnc(C(C)(C)O)n4)ccc3C)c(=O)c2Cl)co1,121
25,O=C(NCCN1CCOCC1)c1cccc(-n2ncc3cc(Nc4ccccc4)cnc32)c1,140
26,Cc1cc(NC(=O)c2cccc(-n3cc(NC(=O)Nc4ccccc4Cl)cn3)c2)cc(C)n1,> 10000
27,CNC(=O)c1cc(Oc2ccc(NC(=O)Nc3cc(C(C)(C)C)nn3-c3ccc(C)cc3)cc2)ccn1,< 1
28,COc1cc(Nc2cc(Oc3ccc(NC(=O)Nc4cc(C(C)(C)C)cc(NS(C)(=O)=O)c4OC)c4ccccc34)ccn2)cc(C(=O)NCC(C)(C)N2CCOCC2)c1,67
29,COc1c(NC(=O)C(=O)c2ccc(OCCN3CCOCC3)c3ccccc23)cc(C(C)(C)C)cc1NS(C)(=O)=O,7300
30,C#Cc1cc(Nc2cc(Oc3ccc(NC(=O)Nc4cc(C(C)(C)C)cc(CO)c4OC)c4ccccc34)ccn2)cc(C(=O)NCCOCCOCCOC)c1,90

# The next lines start with the values.
row,IC50 [nM],SMILES
1,356,CCOC(=O)/C=C/Sc1nc(-c2ccc(F)cc2)c(-c2ccnc(NC(C)=O)c2)n1CC(OC)OC
2,210,CC(C)C[C@H](NCCc1cc(F)c(-n2c(N)c(C(=O)c3ccc(F)cc3F)ccc2=O)c(F)c1)C(=O)OC1CCCC1
3,2840,Cc1cccc(-c2[nH]c(CNc3cc(CN(C)C)ccc3F)nc2-c2ccc3ncnn3c2)n1
4,30,Nc1ccccc1Nc1ccc2c(c1)CCc1ccc(OCCN3CCOCC3)cc1C2=O
5,1100,N#CC1(c2cccc(C(=O)Nc3cc(Oc4ccc5nc(NC(=O)C6CC6)sc5n4)ccc3F)c2Cl)CC1
6,290,O=C1c2ccc(Nc3ccc(F)cc3F)cc2CCc2c(OC3CCOCC3)cccc21
7,1,CC(C)C[C@H](NCCc1cc(F)c(-n2c(N)c(C(=O)c3ccc(F)cc3F)ccc2=O)c(F)c1)C(=O)O
8,> 10000,C=CC(=O)N1CCc2ccc(-n3c(=O)ccc4cnc5ccc(-c6cnn(C)c6)cc5c43)cc21
9,620,O=c1c(Br)c(OCc2ccc(F)cc2F)ccn1Cc1cccc(F)c1
10,30,COc1cc(NC(=O)c2cccc(-n3ncc4cc(Nc5ccccc5F)ccc43)c2)cc(OC)c1OC
11,2520,COc1ccc(C=CC(=O)Nc2cc(-c3c(-c4ccc(F)cc4)noc3C(C)C)ccn2)c(OC)c1
12,718,Cc1cccc(-c2[nH]c(CNc3cc(N(C)C)ccc3F)nc2-c2ccc3ncnn3c2)n1
13,> 10000,Cc1ccc(NC(=O)c2ccc(F)c(-n3cc(NC(=O)Nc4ccccc4Cl)cn3)c2)cn1
14,> 10000,Cc1ccc(CNC(=O)c2cccc(-n3cc(NC(=O)Nc4ccccc4Cl)cn3)c2)cn1
15,500,CSc1nc(-c2ccc(F)cc2)c(-c2ccnc(NC(C)=O)c2)n1C
16,< 1,O=C(Nc1ccc(Cl)c(C(F)(F)F)c1)Nc1ccc(OCCN2CCOCC2)c2ccccc12
17,114,O=C1c2ccccc2CCc2cc(Nc3ccc(F)cc3F)ccc21
18,122,CNC(=O)c1cccc(-n2c(C)cc(OCc3ccc(F)cc3F)c(Br)c2=O)c1
19,820,C#Cc1ccc(-c2nc(-c3ccc(F)cc3)c(-c3ccnc(SC)n3)[nH]2)cc1
20,120,Cc1cccc(-c2[nH]c(CNc3cccc(C#N)c3)nc2-c2ccc3ncnn3c2)n1
21,> 10000,Cc1cc(NC(=O)c2cccc(-n3cc(NC(=O)Nc4ccccc4Cl)cn3)c2)ccn1
22,2,Nc1c(C(=O)c2ccc(F)cc2F)ccc(=O)n1-c1c(F)cccc1F

# Molecular target: CDK2 (human) (UniProt P24941)
# Experiment: Enzyme Assay
# Conditions: not given
row,IC50 [nM],SMILES
1,2700,N#CC1(c2cccc(C(=O)Nc3cc(Oc4ccc5nc(NC(=O)C6CC6)sc5n4)ccc3F)c2Cl)CC1
